Data published in patent publication US11623008B2, “Excipient compositions for mucoadhesive pharmaceutical compositions including a synergistic combination of amylopectin, pullulan, hyaluronic acid, and xyloglucan” (Professional Compounding Centers of America (PCCA), priority 2014, dated 2023).

Key:
[1] = test system: EpiOral tissue model (ORL-200), human oral mucosa; test: Safety and toxicological profile on human oral mucosa (MTT cell viability); format: cell-based; conditions: excipient composition at 50%, Triton X-100 at 1%; for mean percent viability: mean of two experiments
Method: This study was conducted to evaluate the safety and toxicological profile of disclosed excipient compositions in comparison to Triton X-100 (positive control) and distilled water (negative control), using a 3D model of the human oral mucosa. Triton X-100 is a non-ionic surfactant, which is not approved for oral use.
Methodology: The materials used in this study include EpiOral™ tissue samples, disclosed excipient composition (Lot: 6481454) at 50% (diluted in distilled water), and Triton X-100 at 1%. The EpiOral™ tissue model (ORL-200) comprises of normal human-derived non-keratinized oral epithelial cells, cultured and differentiated to resemble the native buccal tissue of the human oral mucosa. Following tissue preparation, 40 μL of disclosed excipient composition at 50% and Triton X-100 at 1% were applied onto separate EpiOral tissue samples and left to incubate at 37° C. Incubation intervals were 1, 4.5, and 20 hours. Application of distilled water on an EpiOral tissue served as the negative control. After the allotted exposure time, each tissue was rinsed twice with phosphate buffer saline (PBS) and excess liquid was removed. Afterwards, 300 μL of 3-[4,5-dimethylthiazol-2yl]-2,5-diphenyltetrazolium bromide (MTT) solution was added to the EpiOral tissues and left to incubate for 3 hours. MTT was used as an indicator of cell viability. Succinate dehydrogenase enzymes within the mitochondria of viable cells have the ability to reduce soluble yellow tetrazonium salt of MTT to an insoluble purple formazan derivative. After 3 hours of exposure to MTT, the tissues were immersed in 2 mL of extraction solution, sealed in a plastic bag, and stored at room temperature overnight. The excess liquid was then decanted and the remaining extractant solution was agitated. A 200 μL aliquot of each extract was evaluated using a Molecular Device SpectraMax® M5 Microplate Reader. This device quantifies the absorbance potential of the samples at 570 nm, a wavelength absorbed by reduced MTT. This experiment was repeated two months following initial testing using identical methodology and the Electrolyte Saliva Gel (PCCA Formula #11150), which consists of sodium chloride, potassium chloride, calcium chloride, and a flavor extract in disclosed excipient composition (Lot: 6481454) at 50% (diluted in distilled water).
Results and Discussion: Toxicological profiles for disclosed excipient composition and the positive control, Triton X-100 at 1%, were compared by examining absorbancy potentials of the extracts collected from both experiments. […] Mean percent cell viabilities were calculated for the two experiments and are illustrated in FIG. 3. […]

[2] = test system: EpiVaginal tissue model, human vaginal mucosa; test: Safety and toxicological profile on human vaginal mucosa (MTT cell viability); format: cell-based; conditions: Triton X-100 at 1%
Method: This study was conducted to evaluate the safety and toxicological profile of disclosed excipient compositions in comparison to Triton X-100 (positive control) by employing the EpiVaginal™ tissue model, developed by the MatTek Corporation (Ashland, Mass., USA), which is a highly differentiated 3D model of the human vaginal mucosa. The EpiVaginal™ multi-layered tissue model comprises normal, human-derived vaginal-ectocervical (VEC) epithelial and dendritic cells (DC), cultured and differentiated to resemble the growth and morphological characteristics of the human vaginal mucosa. Triton X-100 is a non-ionic surfactant that can be used as a solubilizer, stabilizer, and emulsifier.
Methodology: Following tissue preparation, within a 6-well plate, 100 μL of disclosed excipient composition at 100% and Triton X-100 at 1% were applied onto separate EpiVaginal tissue samples and left to incubate at 37° C. for 45 minutes to 20 hours. Following incubation, tissues were rinsed twice with Phosphate Buffer Saline (PBS) and excess liquid was removed. A 300 μL of 3-[4,5-dimethylthiazol-2yl]-2,5-diphenyltetrazolium bromide (MTT) solution was then added to the tissues and left to incubate for 3 hours. MTT served as an indicator of cell viability. Succinate dehydrogenase enzymes within the mitochondria of viable cells have the ability to reduce soluble yellow tetrazonium salt of MTT to an insoluble purple formazan derivative. Tissues were then immersed in 2 mL of extraction solution and sealed in a plastic bag to soak overnight at room temperature. Excess liquid was decanted the following day, the remaining extractant solution was agitated, and 200 μL aliquot of each extract was evaluated with a Molecular Device SpectraMax® M5 Microplate Reader. This device quantifies the absorbance potential of the samples at 570 nm, a wavelength absorbed by the formazan derivative.

Triton X-100
mean percent viability ([1]; 1 hour exposure): 117% | mean percent viability ([1]; 4.5 hours exposure): 30% | mean percent viability ([1]; 20 hours exposure): 6% | ET50, the time at which percent viability would be 50% ([1]; estimated from semi-log plot): 3.2 h | percent cell viability ([2]; 45 minutes exposure): 97% | percent cell viability ([2]; 2 hours exposure): 26% | ET50, time when percent cell viability is reduced to 50% ([2]; estimated from semi-log plot): 86.4 min
